Data from patent US11497765B1, “Thioctamer expedites wound healing” (King Abdulaziz University, priority 2022, dated 2022).

Legend:
[1] = test system: excision wound on dorsal surface of diabetic rats; test: Wound closure in wounded diabetic rats, topical hydrogel treatment; format: in vivo, male Wistar rats; conditions: day 7, topical daily, 1.5% w/v HPMC hydrogel (TA 4.1, GA 12.5, thioctamer 16.6 mg/g gel), mean±SD, n=6
Method: Rats were anesthetized by xylazine and ketamine (10 mg/kg and 100 mg/kg, respectively IP injection). The dorsal surface was shaved, the skin was sterilized by povidone-iodine solution, and an excision circle (1 cm diameter) was made on dorsal surface. After the excision, the wounds were cleaned and dried using sterile saline solution and sterile pads, respectively. Subcutaneous injection of 2% solution of lidocaine hydrochloride having 1:80,000 epinephrine (4.4 mg/kg) was performed near the wound area to reduce pain. […] At days 0, 4, 7, and 10, wounds were photographed and assessed. […]

[2] = test system: wound tissues of diabetic rats; test: Histological investigation of wound tissue (H&E, Masson's trichrome); format: in vivo, male Wistar rats; conditions: for Ang = Angio-genesis / CD = Collagen deposition / FP = Fibroblast proliferation / GT = Granulation tissue / IC = Inflammatory cell infiltration / RE = Re-epithelization: day 10 wound healing, topical application, diabetic rats; for healing rate by histology (in words): wound tissues collected on day 10, H&E or Masson's trichrome
Method: Thirty 210-240 g male Wistar rats were provided by KAU's animal facility and were maintained on a 12-hr dark-light cycle at a temperature of 22 ±2° C. […] Induction of diabetes in rats was carried out as formerly described, i.e. prior to the study, rats were intra-peritoneally injected with streptozotocin (50 mg/kg) for two weeks. Go Accu-Chek was utilized for assessing the level of fasting blood glucose (Roche, Mannheim, Germany) Moderate-diabetic rats with level of fasting blood glucose (200-300 mg/100 mL) were chosen for the experiment.
Rats were anesthetized by xylazine and ketamine (10 mg/kg and 100 mg/kg, respectively IP injection). The dorsal surface was shaved, the skin was sterilized by povidone-iodine solution, and an excision circle (1 cm diameter) was made on dorsal surface. After the excision, the wounds were cleaned and dried using sterile saline solution and sterile pads, respectively. Subcutaneous injection of 2% solution of lidocaine hydrochloride having 1:80,000 epinephrine (4.4 mg/kg) was performed near the wound area to reduce pain. […] All treatments were topically applied daily for a total of 10 days. The wounds were wrapped with sterile gauze dressings and changed daily. At days 0, 4, 7, and 10, wounds were photographed and assessed. Animals were sacrificed by beheading at the end of day 10 and the skin of wound area was cut out. From each animal, a part of the obtained skin was retained in 10% neutral formalin, while the other part was preserved at -80° C. for further analyses.
Wound tissues were preserved for 24 h in 10% neutral formalin, then dehydrated using serial concentrations of ethanol, passed through xylene as a clearing agent, and inserted in paraffin. Tissues' paraffin blocks were cut into 5 μm thickness that were rehydrated after dewaxing. Some sections were stained using E&H (eosin and hematoxylin), whereas the remaining were stained with MT (Masson's trichrome). Histological investigation was carried out by a pathologist without prior knowledge of the groups'treatment. On the basis of the abundance/degree of inflammatory cell infiltration, proliferation of fibroblasts, deposition of collagen, angiogenesis, tissue granulation, and re-epithelization, scores were assigned in a range from - to +++.

[3] = test system: IL-6; test: Immunohistochemical assessment of IL-6 expression in wounded skin; format: in vivo, male Wistar rats; conditions: wounded skin of diabetic rats; negative control 0.42±0.044; mean±SD, n=6
Method: (§1) Rats were anesthetized by xylazine and ketamine (10 mg/kg and 100 mg/kg, respectively IP injection). The dorsal surface was shaved, the skin was sterilized by povidone-iodine solution, and an excision circle (1 cm diameter) was made on dorsal surface. After the excision, the wounds were cleaned and dried using sterile saline solution and sterile pads, respectively. Subcutaneous injection of 2% solution of lidocaine hydrochloride having 1:80,000 epinephrine (4.4 mg/kg) was performed near the wound area to reduce pain. […] All treatments were topically applied daily for a total of 10 days. The wounds were wrapped with sterile gauze dressings and changed daily. At days 0, 4, 7, and 10, wounds were photographed and assessed. Animals were sacrificed by beheading at the end of day 10 and the skin of wound area was cut out. […]

[4] = test system: TNF-α; test: Immunohistochemical assessment of TNF-α expression in wounded skin; format: in vivo, male Wistar rats; conditions: wounded skin of diabetic rats; negative control 0.47±0.048; mean±SD, n=6
Method: as §1

[5] = Thioctamer zeta potential and particle size evaluation (Zetasizer Nano ZSP); format: physicochemical
Method: Thioctamer was prepared by conjugation of GA and TA in a 1:1 molar ratio. TA was solvated in deionized water (with added of triethanolamine in a 1:1 molar ratio with the amount of TA). GA was dissolved separately in deionized water. The two aqueous solutions were mixed and then vortexed for 60 sec. The prepared thioctamer was assessed for zeta potential and particle size utilizing a Zetasizer Nano ZSP (Malvern Instruments Ltd., Malvern, UK).

[6] = test system: wound on rat skin; conditions: seventh day after surgery; topical; negative control 43.0±17.4%; cited from earlier work
[7] = test system: wounds in diabetic rats; conditions: cited from earlier work

Row | zeta potential [5] [mV] | Compound | % wound contraction (healing) [1] [%] | Ang = Angio-genesis [2] | CD = Collagen deposition [2] | FP = Fibroblast proliferation [2] | GT = Granulation tissue [2] | IC = Inflammatory cell infiltration [2] | RE = Re-epithelization [2] | healing rate by histology (in words) [2] | IL-6 expression (immunohistochemistry, image analysis) [3] | TNF-α expression (immunohistochemistry, image analysis) [4] | healing rate [6] [%] | time to complete wound closure [7] [days]
1 | – | L-alanine compound with L-tyrosine compound with L-lysine compound with L-glutamic acid acetic acid [GA] | 62.6±7.1 | + | ++ | ++ | ++ | +++ | ++ | moderate healing rate | 0.318±0.033 | 0.34±0.05 | – | –
2 | -26.6±5.39 | O=C(O)CCCCC1CCSS1 (centres unmarked) [TA, thioctic acid] | 56.5±5.8 | + | ++ | ++ | ++ | +++ | ++ | moderate healing rate | 0.324±0.043 | 0.374±0.039 | 60.7±8.4 | 8
